# Experiments:
# [1] = test system: pigs sensitized to haloperidol; assay: dystonia in pigs sensitized to haloperidol; assay type: in vivo
# dopamine D2 receptors = dopamine D2 receptors (Homo sapiens, UniProt P14416); details: as described in PCT/DK04/000546; cited from earlier work
# alfa1 adrenoceptors = details: as described in PCT/DK04/000546; cited from earlier work
# CYP2D6 = CYP2D6 (Homo sapiens, UniProt P10635); details: as described in PCT/DK04/000546; cited from earlier work
# rabbit model = details: as described in PCT/DK04/000546; cited from earlier work
# dopamine D1 receptors = dopamine D1 receptors (Homo sapiens, UniProt P21728); details: as described in PCT/DK04/000546; cited from earlier work
# Chain of dopamine D1 receptors (P21728 whole entry): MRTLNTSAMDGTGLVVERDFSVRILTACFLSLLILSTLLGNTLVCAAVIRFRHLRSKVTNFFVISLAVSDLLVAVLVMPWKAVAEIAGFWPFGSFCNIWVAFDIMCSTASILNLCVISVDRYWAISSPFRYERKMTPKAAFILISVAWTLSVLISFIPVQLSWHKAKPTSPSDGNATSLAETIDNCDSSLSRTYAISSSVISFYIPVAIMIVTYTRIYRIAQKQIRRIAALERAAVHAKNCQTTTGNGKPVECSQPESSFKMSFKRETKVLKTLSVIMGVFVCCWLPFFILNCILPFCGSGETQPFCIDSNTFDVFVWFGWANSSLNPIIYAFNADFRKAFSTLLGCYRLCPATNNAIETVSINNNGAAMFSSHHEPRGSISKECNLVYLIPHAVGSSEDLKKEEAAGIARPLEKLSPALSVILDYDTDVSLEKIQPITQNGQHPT
# [2] = biological target: dopamine (DA) D1 receptors (Homo sapiens, UniProt P21728); details: as described in PCT/DK04/000546; cited from earlier work
# Chain of dopamine (DA) D1 receptors (P21728 whole entry): as above
# [3] = biological target: serotonin 5-HT2a receptors (Homo sapiens, UniProt P28223); details: as described in PCT/DK04/000546; cited from earlier work
# Chain of serotonin 5-HT2a receptors (P28223 whole entry): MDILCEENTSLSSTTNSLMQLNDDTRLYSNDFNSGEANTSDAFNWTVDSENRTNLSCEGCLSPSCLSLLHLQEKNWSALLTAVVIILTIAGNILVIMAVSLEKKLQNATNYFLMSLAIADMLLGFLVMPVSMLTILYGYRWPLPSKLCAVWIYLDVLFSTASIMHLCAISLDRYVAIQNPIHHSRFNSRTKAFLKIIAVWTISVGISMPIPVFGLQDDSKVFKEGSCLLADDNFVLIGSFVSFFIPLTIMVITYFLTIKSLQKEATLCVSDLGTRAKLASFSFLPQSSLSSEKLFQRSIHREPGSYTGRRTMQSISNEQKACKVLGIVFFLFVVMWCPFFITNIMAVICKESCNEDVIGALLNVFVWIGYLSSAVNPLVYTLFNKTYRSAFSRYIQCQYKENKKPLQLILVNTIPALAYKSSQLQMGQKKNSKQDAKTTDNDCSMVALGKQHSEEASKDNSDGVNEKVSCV
# DA D2 receptors = DA D2 receptors (Homo sapiens, UniProt P14416); details: as described in PCT/DK04/000546; cited from earlier work
# Chain of DA D2 receptors (P14416 whole entry): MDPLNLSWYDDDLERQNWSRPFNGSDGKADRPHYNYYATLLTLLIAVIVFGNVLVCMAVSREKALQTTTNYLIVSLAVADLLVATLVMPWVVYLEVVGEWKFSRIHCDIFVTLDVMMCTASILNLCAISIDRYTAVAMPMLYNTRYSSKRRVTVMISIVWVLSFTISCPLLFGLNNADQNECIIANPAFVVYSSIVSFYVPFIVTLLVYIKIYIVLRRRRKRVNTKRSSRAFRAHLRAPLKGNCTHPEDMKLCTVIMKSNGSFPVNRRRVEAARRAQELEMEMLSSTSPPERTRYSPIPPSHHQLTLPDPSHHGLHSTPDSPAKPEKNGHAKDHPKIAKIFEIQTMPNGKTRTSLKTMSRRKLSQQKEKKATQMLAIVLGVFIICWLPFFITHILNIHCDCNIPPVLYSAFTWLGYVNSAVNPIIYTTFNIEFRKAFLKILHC
# Chain of dopamine D2 receptors (P14416 whole entry): as above
# Chain of CYP2D6 (P10635 whole entry): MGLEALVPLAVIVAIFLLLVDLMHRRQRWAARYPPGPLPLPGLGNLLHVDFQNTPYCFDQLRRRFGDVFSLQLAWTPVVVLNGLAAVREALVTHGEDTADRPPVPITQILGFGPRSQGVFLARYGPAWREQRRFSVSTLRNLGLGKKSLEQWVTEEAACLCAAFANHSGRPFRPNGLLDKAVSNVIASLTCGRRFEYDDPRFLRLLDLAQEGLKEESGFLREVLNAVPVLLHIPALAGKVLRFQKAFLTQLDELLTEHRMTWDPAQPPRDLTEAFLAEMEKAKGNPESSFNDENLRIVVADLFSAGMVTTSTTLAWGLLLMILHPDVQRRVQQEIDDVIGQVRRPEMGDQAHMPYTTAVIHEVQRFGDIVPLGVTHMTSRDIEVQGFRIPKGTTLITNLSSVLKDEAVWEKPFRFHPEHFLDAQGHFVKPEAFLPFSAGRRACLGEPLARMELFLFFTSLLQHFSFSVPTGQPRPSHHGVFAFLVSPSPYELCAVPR
smiles,measurement,setting,value
"CC1(C)CN([C@@H]2C[C@@H](c3ccccc3)c3ccc(Cl)cc32)CCN1 [Compound I, trans-1-((1R,3S)-6-chloro-3-phenylindan-1-yl)-3,3-dimethylpiperazine]",induction of dystonia (EPS liability),[1],did not induce dystonia
same,functional activity at dopamine D2 receptors,dopamine D2 receptors,antagonist
same,affinity for alfa1 adrenoceptors,alfa1 adrenoceptors,high affinity
same,inhibition of CYP2D6,CYP2D6,relatively weak inhibitor
same,effect on the QT interval,rabbit model,relatively low effect
same,functional activity at dopamine D1 receptors,dopamine D1 receptors,antagonist
same,affinity for dopamine (DA) D1 receptors,[2],high affinity
same,functional activity at serotonin 5-HT2a receptors,[3],antagonist
same,affinity for DA D2 receptors,DA D2 receptors,high affinity
